In patent US20190211020A1 (Agency for Science, Technology and Research, priority 2012, published 2019) one finds IC50 data, which are given here for 25 compounds.

Read-outs that look alike come from different tables or passages of the source.

For the assay, the system named is eIF4E Ser209 phosphorylation in Hela cells. Description: MNK cell-based assay (AlphaScreen SureFire, eIF4E Ser209 phosphorylation). The following applies: Homo sapiens, read-out: IC50 Hela. An excerpt: It has been reported that Ser209 of eIF4E is solely phosphorylated by the MNK enzymes. The ability of compounds to inhibit this process in Hela cells was investigated using the AlphaScreen SureFire® assay platform from Perkin Elmer (Waltham, Mass.). eIF4E phosphorylated on Ser209 is recognized by two antibodies, the first which is fused to a streptavidin coated donor bead binds to an epitope away from Ser209, the second which is fused to a protein A conjugated acceptor bead binds to phosphorylated Ser209. The phosphorylation of eIF4E on Ser209 brings the two antibodies into close proximity and when excited by a laser a singlet oxygen is released by the donor bead which excites the acceptor bead resulting in the emission of light. This enables the monitoring of eIF4E Ser209 phosphorylation and its inhibition in a cellular context.
Hela cells were seeded into microtitre plates (30,000 cells per well) in 100 μl of culture medium and incubated at 37° C. for 24 hours. The media was then removed by aspiration and the cells resuspended in 50 μl of serum free medium containing the test compound and incubated at 37° C. for 2 hours. The culture medium was again removed by aspiration and the cells resuspended in lysis buffer (provided in Perkin Elmer SureFire® Assay Kit). After agitation at 350 rpm for 20 minutes at 22° C., 4 μl was transferred to a 384 well OptiPlate™ (Perkin Elmer, Waltham, Mass.). To each well was added 5 μl of acceptor mix; the plate was sealed and agitated gently at 22° C. for 2 hours. Then, in subdued light, 2 μl of donor mix was added to each well, the plate was sealed, wrapped in aluminum foil and agitated gently at 22° C. for 2 hours. Emission was measured using the EnVision® plate reader (Perkin Elmer, Waltham, Mass.).
Inhibition constants (IC50) were determined by plotting AlphaScreen signal versus log compound concentration and fitting with a non-linear regression algorithm using GraphPad Prism (GraphPad Software Inc.).
(In Alpha technology, singlet oxygen from a donor bead excites a nearby acceptor bead.)

The mark [1] stands for this setting: eIF4E Ser209 phosphorylation, Hela cells, 2 hours.

As usually defined, the IC50 is the concentration that gives 50% inhibition. Consider `N#Cc1ccc(-c2cnc3ccc(-c4ccc(C(=O)N5CCNC(=O)C5)cc4)cn23)cc1` [Example 102, 4-(6-(4-(3-oxopiperazine-1-carbonyl)phenyl)imidazo[1,2-a]pyridin-3-yl)benzonitrile], for which the IC50 under setting [1] was under 1 µM.
`CN1CCCN(C(=O)c2ccc(-c3ccc4ncc(-c5ccc(C#N)cc5)n4c3)cc2)CC1` [Example 103, 4-(6-(4-(4-methyl-1,4-diazepane-1-carbonyl)phenyl)imidazo[1,2-a]pyridin-3-yl)benzonitrile]: the IC50 under setting [1] was under 1 µM.
With `CN1CCC(C2CCN(C(=O)c3ccc(-c4ccc5ncc(-c6ccc(C#N)cc6)n5c4)cc3)CC2)CC1` [Example 105, 4-(6-(4-(1′-methyl-4,4′-bipiperidine-1-carbonyl)phenyl)imidazo[1,2-a]pyridin-3-yl)benzonitrile], the IC50 under setting [1] is under 1 µM.
Consider `CC1(O)CCN(C(=O)c2ccc(-c3ccc4ncc(-c5ccc(C#N)cc5)n4c3)cc2)CC1` [Example 106, 4-(6-(4-(4-hydroxy-4-methylpiperidine-1-carbonyl)phenyl)imidazo[1,2-a]pyridin-3-yl)benzonitrile], for which the IC50 under setting [1] is under 1 µM.
As for `N#Cc1ccc(-c2cnc3ccc(-c4ccc(C(=O)N5CCCNCC5)cc4)cn23)cc1` [Example 107, 4-(6-(4-(1,4-diazepane-1-carbonyl)phenyl)imidazo [1,2-a]pyridin-3-yl)benzonitrile], under setting [1], the IC50 is under 1 µM.
`N#Cc1ccc(-c2cnc3ccc(-c4ccc(C(=O)N5CCC(N)CC5)cc4)cn23)cc1` [Example 109, 4-(6-(4-(4-aminopiperidine-1-carbonyl)phenyl)imidazo[1,2-a]pyridin-3-yl)benzonitrile]: the IC50 under setting [1] is under 1 µM.
The same measure, in the same setting: the result for `CS(=O)(=O)NC1CCN(C(=O)c2ccc(-c3ccc4ncc(-c5ccc(C#N)cc5)n4c3)cc2)CC1` [Example 111, N-(1-(4-(3-(4-cyanophenyl)imidazo[1,2-a]pyridin-6-yl)benzoyl)piperidin-4-yl)methanesulfonamide] reads under 1 µM; that for `CN(C)C1CCN(C(=O)c2ccc(-c3ccc4ncc(-c5ccc(C#N)cc5)n4c3)cc2)CC1` [Example 112, 4-(6-(4-(4-(dimethylamino)piperidine-1-carbonyl)phenyl)imidazo[1,2-a]pyridin-3-yl)benzonitrile], under 1 µM.
In the case of `CCC1(N)CCN(C(=O)c2ccc(-c3ccc4ncc(-c5ccc(C#N)cc5)n4c3)cc2)CC1` [Example 113, 4-(6-(4-(4-amino-4-ethylpiperidine-1-carbonyl)phenyl)imidazo [1,2-a]pyridin-3-yl)benzonitrile], the IC50 under setting [1] was under 1 µM.
Turning to `N#Cc1ccc(-c2cnc3ccc(-c4ccc(C(=O)NCC(=O)N5CCOCC5)cc4)cn23)cc1` [Example 115, 4-(3-(4-cyanophenyl)imidazo[1,2-a]pyridin-6-yl)-N-(2-morpholino-2-oxoethyl)benzamide], the IC50 under setting [1] was under 1 µM.
Still for that read-out and setting: the result for `N#Cc1ccc(-c2cnc3ccc(-c4ccc(C(=O)NCCN5CCOCC5)cc4)cn23)cc1` [Example 116, 4-(3-(4-cyanophenyl)imidazo[1,2-a]pyridin-6-yl)-N-(2-morpholinoethyl)benzamide] reads under 1 µM; that for `N#Cc1ccc(-c2cnc3ccc(-c4ccc(C(=O)N5CCC6(CCCCN6)CC5)cc4)cn23)cc1` [Example 117, 4-(6-(4-(1,9-diazaspiro[5.5]undecane-9-carbonyl)phenyl)imidazo[1,2-a]pyridin-3-yl)benzonitrile], under 1 µM.
Consider `CC(=O)N1CCCCC12CCN(C(=O)c1ccc(-c3ccc4ncc(-c5ccc(C#N)cc5)n4c3)cc1)CC2` [Example 118, 4-(6-(4-(1-acetyl-1,9-diazaspiro[5.5]undecane-9-carbonyl)phenyl)imidazo[1,2-a]pyridin-3-yl)benzonitrile], for which the IC50 under setting [1] was under 1 µM.
Regarding `CN1CCCCC12CCN(C(=O)c1ccc(-c3ccc4ncc(-c5ccc(C#N)cc5)n4c3)cc1)CC2` [Example 119, 4-(6-(4-(1-methyl-1,9-diazaspiro [5.5]undecane-9-carbonyl)phenyl)imidazo[1,2-a]pyridin-3-yl)benzonitrile], under setting [1], the IC50 is under 1 µM.
For the compound `CN(C(=O)c1ccc(-c2ccc3ncc(-c4ccc(C#N)cc4)n3c2)cc1)c1ccncc1` [Example 122, 4-(3-(4-cyanophenyl)imidazo[1,2-a]pyridin-6-yl)-N-methyl-N-(pyridin-4-yl)benzamide], the IC50 under setting [1] is under 1 µM.
In the case of `N#Cc1ccc(-c2cnc3ccc(-c4ccc(C(=O)N5CCC(CN)CC5)cc4)cn23)cc1` [Example 123, 4-(6-(4-(4-(aminomethyl)piperidine-1-carbonyl)phenyl)imidazo[1,2-a]pyridin-3-yl)benzonitrile], the IC50 under setting [1] was under 1 µM.
Still for that read-out and setting: the result for `N#Cc1ccc(-c2cnc3ccc(-c4ccc(C(=O)N5CCC(CCN)CC5)cc4)cn23)cc1` [Example 124, 4-(6-(4-(4-(2-aminoethyl)piperidine-1-carbonyl)phenyl)imidazo[1,2-a]pyridin-3-yl)benzonitrile] reads under 1 µM; that for `N#Cc1ccc(-c2cnc3ccc(-c4ccc(C(=O)N5CCN(C(=O)c6ccccc6)CC5)cc4)cn23)cc1` [Example 126, 4-(6-(4-(4-benzoylpiperazine-1-carbonyl)phenyl)imidazo[1,2-a]pyridin-3-yl)benzonitrile], under 1 µM.
`N#Cc1ccc(-c2cnc3ccc(-c4ccc(C(=O)N5CCN(Cc6ccc(C(N)=O)cc6)CC5)cc4)cn23)cc1` [Example 129, 4-((4-(4-(3-(4-cyanophenyl)imidazo[1,2-a]pyridin-6-yl)benzoyl)piperazin-1-yl)methyl)benzamide]: the IC50 under setting [1] is under 1 µM.
Same read-out and setting: the result for `CN1CCN(C(=O)c2ccc(-c3ccc4ncc(-c5ccc(C#N)cc5)n4c3)cc2)CC1=O` [Example 130, 4-(6-(4-(4-methyl-3-oxopiperazine-1-carbonyl)phenyl)imidazo[1,2-a]pyridin-3-yl)benzonitrile] reads under 1 µM.
As to `N#Cc1ccc(-c2cnc3ccc(-c4ccc(C(=O)N5CCC(N6CCOCC6)CC5)cc4)cn23)cc1` [Example 134, 4-(6-(4-(4-morpholinopiperidine-1-carbonyl)phenyl)imidazo[1,2-a]pyridin-3-yl)benzonitrile], the IC50 under setting [1] was under 1 µM.
For `Cc1nnc(C2(C)CCN(C(=O)c3ccc(-c4ccc5ncc(-c6ccc(C#N)cc6)n5c4)cc3)CC2)o1` [Example 135, 4-(6-(4-(4-methyl-4-(5-methyl-1,3,4-oxadiazol-2-yl)piperidine-1-carbonyl)phenyl)imidazo [1,2-a]pyridin-3-yl)benzonitrile], the IC50 under setting [1] is under 1 µM.
Turning to `Cc1cc2ncc(-c3ccc(C#N)cc3)n2cc1-c1ccc(C(=O)N2CCC(C)(N)CC2)cc1` [Example 137, 4-(6-(4-(4-amino-4-methylpiperidine-1-carbonyl)phenyl)-7-methylimidazo[1,2-a]pyridin-3-yl)benzonitrile], the IC50 (HeLa, 2 h) is under 1 µM.
For the compound `Cc1cc2ncc(-c3ccc(C#N)cc3)n2cc1-c1ccc(C(=O)N2CCN(C)CC2)cc1` [Example 138, 4-(7-methyl-6-(4-(4-methylpiperazine-1-carbonyl)phenyl)imidazo[1,2-a]pyridin-3-yl)benzonitrile], the IC50 under setting [1] was under 1 µM.
Take `CN1CCN(C(=O)c2ccc(-c3ccc4ncc(-c5ccc(C#N)cc5)n4c3)c(F)c2)CC1` [Example 140, 4-(6-(2-fluoro-4-(4-methylpiperazine-1-carbonyl)phenyl)imidazo [1,2-a]pyridin-3-yl)benzonitrile]: the IC50 under setting [1] was under 1 µM.
